Measured values as given in patent publication US10131652B2, “Pyrimidinyloxy benzene derivatives as herbicides” (E. I. DU PONT DE NEMOURS AND COMPANY, priority 2014, dated 2018).

What was measured:
Format in all cases: in vivo
[1] = tested on: barnyardgrass (Echinochloa crus-galli); assay: Test D pre-/postemergence plant response
Outline: (§1)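 Plants are held in a greenhouse 13 to 15 days after spraying, then injury is rated by eye relative to controls on a 0 to 100 scale. Treatments are preemergence on freshly sown loam/sand pots or postemergence at 1- to 4-leaf stage in peat-based medium; surfactant-containing solvent formulation.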

[2] = tested on: oilseed rape (Brassica napus); assay: Test D pre-/postemergence plant response
Outline: as §1

[3] = tested on: blackgrass (Alopecurus myosuroides); assay: Test D pre-/postemergence plant response
Outline: as §1

[4] = tested on: galium (catchweed bedstraw, Galium aparine); assay: Test D pre-/postemergence plant response
Outline: as §1

[5] = tested on: large (Lg) crabgrass (Digitaria sanguinalis); assay: Test D pre-/postemergence plant response
Outline: as §1

[6] = tested on: ragweed (common ragweed, Ambrosia elatior); assay: Test D pre-/postemergence plant response
Outline: as §1

[7] = tested on: yellow nutsedge (Cyperus esculentus); assay: Test D pre-/postemergence plant response; details: Preemergence; for Plant response rating, Nutsedge, Yellow: scale 0 to 100 (0 no effect, 100 complete control)
Outline: as §1

[8] = tested on: pigweed (Amaranthus retroflexus); assay: Test D pre-/postemergence plant response
Outline: as §1

corn (Zea mays) = assay: Test D pre-/postemergence plant response
Outline: as §1

[9] = tested on: giant foxtail (Setaria faberii); assay: Test D pre-/postemergence plant response
Outline: as §1

[10] = tested on: Italian ryegrass (Lolium multiflorum); assay: Test D pre-/postemergence plant response
Outline: as §1

kochia (Kochia scoparia) = assay: Test B pre-/postemergence plant response
Outline: (§2)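 Greenhouse pots, loam/sand soil; compound formulated with surfactant in non-phytotoxic solvent. Preemergence soil spray and postemergence spray at 1–2 leaf stage run simultaneously. Visual injury, 0–100, about 10 days post-treatment.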

[11] = tested on: ragweed (common ragweed, Ambrosia elatior); assay: Test B pre-/postemergence plant response
Outline: as §2

[12] = tested on: Italian ryegrass (Lolium multiflorum); assay: Test B pre-/postemergence plant response
Outline: as §2

[13] = Postemergence, 16 g ai/ha, scale 0 to 100 (0 no effect, 100 complete control)
[14] = Postemergence, 31 g ai/ha, scale 0 to 100 (0 no effect, 100 complete control)
[15] = Postemergence, 62 g ai/ha, scale 0 to 100, 0 no effect, 100 complete control
[16] = Postemergence, 125 g ai/ha, scale 0 to 100, 0 no effect, 100 complete control
[17] = Preemergence, 16 g ai/ha, scale 0 to 100 (0 no effect, 100 complete control)
[18] = Preemergence, 31 g ai/ha, scale 0 to 100 (0 no effect, 100 complete control)
[19] = Preemergence, 62 g ai/ha, scale 0 to 100 (0 no effect, 100 complete control)
[20] = 125 g ai/ha, postemergence, 0 to 100 scale, 0 no effect, 100 complete control
[21] = Postemergence, 500 g ai/ha, 0 to 100 scale (0 no effect, 100 complete control)
[22] = Preemergence, 125 g ai/ha, 0 to 100 scale where 0 is no effect and 100 is complete control
[23] = Preemergence, 500 g ai/ha, 0 to 100 scale where 0 is no effect and 100 is complete control

FC(F)(F)c1cc(-c2ccccc2Oc2ncc(Cl)cn2)ncn1 [Compound 54]
55: Galium plant response rating [4, 14] | Plant response rating, Galium [4, 15]
50: Plant response rating, Oilseed Rape [2, 15] | Galium plant response rating [4, 13] | Plant response rating, Galium [4, 17] | Plant response rating, Foxtail, Giant [9, 16] | Plant response rating, Ragweed [11, 20]
15: Plant response rating (scale 0 to 100), Nutsedge, Yellow ([7]; 125 g ai/ha)
40: Plant response rating, Blackgrass [3, 19] | Plant response rating, Ragweed [6, 18]
80: Pigweed plant response rating [8, 14] | Plant response rating, Pigweed [8, 15] | Plant response rating, Kochia (kochia (Kochia scoparia); [22])
0: Barnyardgrass plant response rating [1, 13] | Plant response rating, Barnyardgrass [1, 17] | Blackgrass plant response rating [3, 13] | Ragweed plant response rating [6, 13] | Ragweed plant response rating [6, 14] | Plant response rating, Nutsedge, Yellow ([7]; 16 g ai/ha) | Plant response rating, Nutsedge, Yellow ([7]; 31 g ai/ha) | Plant response rating, Nutsedge, Yellow ([7]; 62 g ai/ha) | Corn plant response rating (corn (Zea mays); [13]) | Corn plant response rating (corn (Zea mays); [14]) | Plant response rating (scale 0 to 100), Corn (corn (Zea mays); Preemergence, 125 g ai/ha) | Plant response rating, Corn (corn (Zea mays); [17]) | Plant response rating, Corn (corn (Zea mays); [18]) | Plant response rating, Corn (corn (Zea mays); [19]) | Foxtail, Giant plant response rating [9, 13] | Plant response rating, Foxtail, Giant [9, 17] | Ryegrass, Italian plant response rating [10, 13] | Ryegrass, Italian plant response rating [10, 14] | Plant response rating, Ryegrass, Italian [10, 15] | Plant response rating, Ryegrass, Italian [10, 16] | Plant response rating, Ryegrass, Italian [10, 17]
5: Barnyardgrass plant response rating [1, 14] | Plant response rating, Barnyardgrass [1, 15] | Plant response rating, Barnyardgrass [1, 18] | Oilseed Rape plant response rating [2, 13] | Blackgrass plant response rating [3, 14] | Plant response rating, Blackgrass [3, 15] | Plant response rating, Blackgrass [3, 16] | Plant response rating, Blackgrass [3, 17] | Plant response rating, Blackgrass [3, 18] | Crabgrass, Large plant response rating [5, 13] | Crabgrass, Large plant response rating [5, 14] | Plant response rating, Crabgrass, Large [5, 15] | Plant response rating, Crabgrass, Large [5, 16] | Plant response rating, Ragweed [6, 15] | Plant response rating, Pigweed [8, 17] | Plant response rating, Corn (corn (Zea mays); [15]) | Plant response rating, Corn (corn (Zea mays); [16]) | Plant response rating, Ryegrass, Italian [10, 18] | Plant response rating, Ryegrass, Italian [10, 19]
30: Foxtail, Giant plant response rating [9, 14] | Plant response rating (scale 0 to 100), Ryegrass, Italian ([10]; Preemergence, 125 g ai/ha) | Plant response rating, Ryegrass, Italian [12, 20] | Plant response rating, Ryegrass, Italian [12, 22]
75: Plant response rating, Galium [4, 16] | Plant response rating, Crabgrass, Large [5, 18]
35: Plant response rating, Ragweed [6, 16] | Plant response rating (scale 0 to 100), Ragweed ([6]; Preemergence, 125 g ai/ha)
10: Plant response rating, Barnyardgrass [1, 16] | Plant response rating (scale 0 to 100), Barnyardgrass ([1]; Preemergence, 62 g ai/ha) | Plant response rating, Crabgrass, Large [5, 17] | Plant response rating, Ragweed [6, 17] | Plant response rating, Ragweed [6, 19] | Plant response rating, Foxtail, Giant [9, 15] | Plant response rating, Foxtail, Giant [9, 18]
70: Plant response rating (scale 0 to 100), Blackgrass ([3]; Preemergence, 125 g ai/ha) | Plant response rating, Ragweed [11, 23]
85: Plant response rating, Oilseed Rape [2, 18] | Plant response rating (scale 0 to 100), Galium ([4]; Preemergence, 125 g ai/ha) | Plant response rating, Galium [4, 18]
100: Plant response rating (scale 0 to 100), Oilseed Rape ([2]; Preemergence, 125 g ai/ha) | Plant response rating, Oilseed Rape [2, 19] | Plant response rating (scale 0 to 100), Crabgrass, Large ([5]; Preemergence, 125 g ai/ha) | Plant response rating (scale 0 to 100), Pigweed ([8]; Preemergence, 125 g ai/ha) | Plant response rating, Pigweed [8, 18] | Plant response rating, Pigweed [8, 19] | Plant response rating, Kochia (kochia (Kochia scoparia); [20]) | Plant response rating, Kochia (kochia (Kochia scoparia); [21]) | Plant response rating, Kochia (kochia (Kochia scoparia); [23])
90: Plant response rating, Crabgrass, Large [5, 19]
60: Plant response rating, Oilseed Rape [2, 16] | Plant response rating, Oilseed Rape [2, 17] | Plant response rating, Galium [4, 19] | Pigweed plant response rating [8, 13] | Plant response rating, Pigweed [8, 16] | Plant response rating, Ragweed [11, 21] | Plant response rating, Ragweed [11, 22] | Plant response rating, Ryegrass, Italian [12, 21] | Plant response rating, Ryegrass, Italian [12, 23]
95: Plant response rating (scale 0 to 100), Barnyardgrass ([1]; Preemergence, 125 g ai/ha) | Plant response rating (scale 0 to 100), Foxtail, Giant ([9]; Preemergence, 125 g ai/ha) | Plant response rating, Foxtail, Giant [9, 19]
20: Oilseed Rape plant response rating [2, 14]
